# In US7879910B1, “Compositions and methods for promoting lush hair growth” (Jan Marini Skin Research, Inc., priority 2006, dated 2011):
# Legend:
# [1] = Estimated margin of safety for topical use; conditions: assuming absorbed daily dosage of 0.020 μg/kg/day; relative to no-observable-adverse-effect dose in long-term laboratory toxicity tests; conservatively estimated
# Excerpt: When absorbed in the body, is also metabolized into [+]fluprostenol. Based on extensive studies comparing the chemical structures, ocular and dermal absorption, metabolism, potency at the biological target site, toxicological and pharmacological of PGF2α analogs and derivatives, such as bimatoprost and travoprost, the inventor believes that the compound of Formula I, in particular the 5-Heptenamide, has much more balanced and favorable profiles of safety and efficacy, especially for long term chronic application to the skin. […] Assuming an absorbed daily dosage of 0.020 μg/kg/day, due to tightness of the outmost keratinized skin layer (the stratum corneum) which causes percutaneous permeability of most drugs 100-1000 times less than through the conjunctiva (Urtti & Salminen (1993) Survey of Opthalmology 37:435-456) and the lower hydrolysis rate of the 5-Heptenamide than travoprost, the margin of safety for 5-Heptenamide is conservatively estimated to be about 71,000, which means normal use of the composition delivers a dose that is less than about one 71,000th the no-observable-adverse-effect dose in long-term laboratory toxicity tests.
# Traditionally, a margin of safety of 100 (10 for interspecies extrapolation, and 10 for […]) is considered adequate. […]
# [2] = Metabolic conversion to the acid form [+]fluprostenol once absorbed in the body; type: in vivo, mammal; conditions: assessed by comparison of PGF2α analogs
# Excerpt: In particular, the 5-Heptenamide administered to a mammal can be metabolized to produce an acid form which is a single isomer of fluprostenol, [+]fluprostenol having the structure of
# Since the compound of Formula I is an amide derivative of a PGF2α analog, once absorbed, hydrolysis by enzymes in the body converts the amide back to the biologically active carboxylic acid. In particular, the 5-Heptenamide can be metabolized to [+]fluprostenol which then binds to the prostaglandin receptor with high affinity and has reduced side effects such as eye irritation and hyperemia (excess blood in vessels supplying the eye).
# When absorbed in the body, is also metabolized into [+]fluprostenol. Based on extensive studies comparing the chemical structures, ocular and dermal absorption, metabolism, potency at the biological target site, toxicological and pharmacological of PGF2α analogs and derivatives, such as bimatoprost and travoprost, the inventor believes that the compound of Formula I, in particular the 5-Heptenamide, has much more balanced and favorable profiles of safety and efficacy, especially for long term chronic application to the skin. […]
SMILES,margin of safety [1],conversion to [+]fluprostenol (acid form) [2]
"CCNC(=O)CCC/C=C\C[C@@H]1[C@H](/C=C/[C@@H](O)COc2cccc(C(F)(F)F)c2)[C@H](O)C[C@@H]1O (relative stereo) [5-Heptenamide, 5-Heptenamide, 7-(3,5-dihydroxy-2-(3-hydroxy-4-(3-(trifluoromethyl)phenoxy)-1-butenyl)cyclopentyl)-, N-ethyl, (1R-(1alpha(Z), 2beta(1E,3R*), 3alpha, 5alpha)]","about 71,000",not as quantitatively converted to the acid form
"CC(C)OC(=O)CCC/C=C\C[C@@H]1[C@@H](/C=C/[C@@H](O)COc2cccc(C(F)(F)F)c2)[C@H](O)C[C@@H]1O [travoprost, Travoprost, reference compound]",,essentially completely converted
